Source: publication PMC11900313, “Exploring the Potential of Coumarin Derivatives on Serotonin Receptors 5-HT1A and 5HT2A” (International Journal of Molecular Sciences, 2025)
Several values for one entry are separate records, joined by “and”; a condition that tells them apart may be missing. Equal values may be shown once. Read-outs that look alike come from different tables or passages of the source.

Columns and labels:
5-HT1A receptor [1] = molecular target: T1, 5-HT1A receptor (Rattus norvegicus, UniProt P19327); assay: 5-HT1A competitive radioligand binding assay with [3H]8-OH-DPAT, hippocampal membranes; design: species or system Sprague–Dawley rats; details: [3H]8-OH-DPAT, hippocampal membranes; 95% CI in brackets
T1 construct: from tissue; host or cells: Sprague-Dawley rat hippocampus membranes
T1 sequence (P19327 1-422): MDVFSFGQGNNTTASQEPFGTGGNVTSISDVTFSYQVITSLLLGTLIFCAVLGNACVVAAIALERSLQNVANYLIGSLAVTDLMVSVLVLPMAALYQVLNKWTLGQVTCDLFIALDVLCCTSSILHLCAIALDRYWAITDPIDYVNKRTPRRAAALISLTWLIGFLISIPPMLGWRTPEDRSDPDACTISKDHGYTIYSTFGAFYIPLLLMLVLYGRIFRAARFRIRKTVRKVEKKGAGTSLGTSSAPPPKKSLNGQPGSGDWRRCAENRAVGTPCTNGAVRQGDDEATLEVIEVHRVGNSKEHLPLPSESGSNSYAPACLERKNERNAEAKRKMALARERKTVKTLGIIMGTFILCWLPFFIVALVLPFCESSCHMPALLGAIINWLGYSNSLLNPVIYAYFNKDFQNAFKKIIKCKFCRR
Protocol: (§1) Sprague–Dawley rats were decapitated under isoflurane anesthesia. Brains were rapidly removed and placed on ice. Hippocampi (for the 5-HT1A assay) or frontal cortices (for the 5-HT2A assay) were dissected on a Petri dish. The tissue from 10 rats was homogenized in 30 vol. homogenization buffer (50 mM Tris-HCl, pH = 4.7, 1 mM EDTA, 1mM dithiothreitol) with a hand held Teflon-glass homogenizer. The homogenate was centrifuged at 48,000× g at 4 °C for 15 min. The pellet was suspended and homogenized in homogenization buffer and incubated for 10 min at 36 °C. The centrifugation and suspension steps were repeated twice. The final pellet was homogenized in 5 vol. 50 mM Tris-HCl, pH = 7.4 buffer and stored at −80 °C for no longer than 6 months.
(§2) Non-specific binding was determined with 10 μM serotonin. The final DMSO concentration in the assay was 5%. After incubation, the reaction mixture was deposited with the FilterMate-96 Harvester (Revvity, Waltham, MA, USA) onto Unifilter® GF/C plates (Revvity, Waltham, MA, USA) presoaked in 0.4% PEI for 1 h. Each well was washed with 2 mL of 50 mM Tris-HCl (pH 7.4) buffer to separate bound ligands from free. Plates were left to dry overnight. Then, 35 µL of Microscint-20 scintillation fluid (Revvity, Waltham, MA, USA) was added to each filter well and left to equilibrate for 2 h. Filter-bound radioactivity was counted in a MicroBeta^2 LumiJet scintillation counter (Revvity, Waltham, MA, USA). Binding curves were fitted with one site non-linear regression. The binding affinity (Ki) for each compound was calculated from the EC50 values with the Cheng–Prusoff equation from two separate experiments.

5-HT2A receptor [2] = molecular target: T2, 5-HT2A receptor (Rattus norvegicus, UniProt P14842); assay: 5-HT2A competitive radioligand binding assay with [3H]ketanserin, frontal cortex membranes; design: species or system Sprague–Dawley rats
T2 construct: from tissue; host or cells: Sprague-Dawley rat frontal cortex membranes
T2 sequence (P14842 whole entry): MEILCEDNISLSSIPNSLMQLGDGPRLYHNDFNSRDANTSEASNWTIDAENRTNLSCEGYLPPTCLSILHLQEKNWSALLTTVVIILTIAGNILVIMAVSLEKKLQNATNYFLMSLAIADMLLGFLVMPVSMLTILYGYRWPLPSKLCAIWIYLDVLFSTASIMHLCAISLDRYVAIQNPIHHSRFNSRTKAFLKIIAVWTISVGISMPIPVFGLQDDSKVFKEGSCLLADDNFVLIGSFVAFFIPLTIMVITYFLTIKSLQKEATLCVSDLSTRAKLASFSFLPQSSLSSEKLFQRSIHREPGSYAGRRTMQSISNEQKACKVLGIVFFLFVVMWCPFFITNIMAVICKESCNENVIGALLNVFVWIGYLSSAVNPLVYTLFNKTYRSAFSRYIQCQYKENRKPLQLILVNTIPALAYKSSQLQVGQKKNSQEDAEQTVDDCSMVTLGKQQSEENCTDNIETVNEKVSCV
Protocol: as §1, §2

5-HT1A receptor [3] = molecular target: T1, 5-HT1A receptor; assay: Antagonist activity at 5-HT1A receptors, [35S]GTPγS assay with 8-OH-DPAT stimulation; assay type: biochemical, Sprague–Dawley rats; details: for IC50: antagonist activity, [35S]GTPγS
Protocol: as §1
Then, hippocampal membrane homogenates (15 μg/mL) were added to each well, and the mixture was incubated for 90 min. at 37 °C in a total volume of 250 µL. Non-specific binding was determined with 10 µM of unlabeled GTPγS. The reaction was terminated by vacuum filtration onto GF/C Unifilter Plates (Revvity, Waltham, MA, USA) presoaked with 50 mM Tris-HCl (pH = 7.4) for 1 h with the FilterMate Harvester® (Revvity, Waltham, MA, USA). The samples were then rapidly washed with 2 mL of 50 mM Tris-HCl (pH = 7.4) buffer. The Unifilter plates were dried overnight at RT. After drying, 35 µL of EcoScint-20 scintillant (Revvity, Waltham, MA, USA) was added to each well. Radioactivity was counted in a Trilux MicroBeta^2 counter (Revvity, Waltham, MA, USA). […] The curves were fitted with a one-site non-linear regression model to determine inhibitory potency (IC50). The experiments were repeated twice.

5-HT1A receptor [4] = details: earlier study; cited from earlier work
5-HT2A receptor [5] = details: earlier study; cited from earlier work
5-HT1A receptor [6] = test system: 5-HT1A receptor; design: method as in PMID 36769117; details: previous study; cited from earlier work
[7] = read-out: 5-HT2A Ki (nM, 95% CI)
[8] = 1 µM 8-OH-DPAT, 95% CI in brackets, read-out: 5-HT1A IC50 (µM, 95% CI)

For `COc1ccccc1N1CCN(CC(O)COc2ccc3c(C)cc(=O)oc3c2)CC1` (centres unmarked) [Compound 9, 7-(2-Hydroxy-3-(4-(2-methoxyphenyl)piperazin-1-yl)propoxy)-4-methyl-2H-chromen-2-one], the Ki (5-HT1A receptor [1]) was 245 nM, the Ki (5-HT2A receptor [2]; [7]) was 291 nM and the IC50 (5-HT1A receptor [3]; [8]) was 2.42 µM and 2.4 µM.
In the case of `COc1ccccc1N1CCN(CCCOc2ccc3c(C)cc(=O)oc3c2C(C)=O)CC1` [8-acetyl-7-{3-[4-(2-methoxyphenyl)piperazin-1-yl]propoxy}-4-methylcoumarin], the Ki (5-HT1A receptor [4]) is listed as 0.0006 µM and the Ki (5-HT2A receptor [5]) is listed as 0.008 µM.
Compound `COc1ccccc1N1CCN(CC(O)COc2ccc3ccc(=O)oc3c2)CC1` (centres unmarked) [Compound 13, 7-(2-Hydroxy-3-(4-(2-methoxyphenyl)piperazin-1-yl)propoxy)-2H-chromen-2-one] has a Ki (5-HT1A receptor [1]) of 222 nM, a Ki (5-HT2A receptor [2]; [7]) of 18 nM and an IC50 (5-HT1A receptor [3]; [8]) of 1.43 µM.
Compound `COc1cccc(N2CCN(CC(O)COc3ccc4c(C)cc(=O)oc4c3C(C)=O)CC2)c1` (centres unmarked) [Compound 12, 8-Acetyl-7-(2-hydroxy-3-(4-(3-methoxyphenyl)piperazin-1-yl)propoxy)-4-methyl-2H-chromen-2-one] has a Ki (5-HT1A receptor [1]) of 264 nM and a Ki (5-HT2A receptor [2]; [7]) of 67 nM.
Work on `COc1ccccc1N1CCN(CC(O)COc2c(C(C)=O)c(C)cc3oc(=O)cc(C)c23)CC1` (centres unmarked) [Compound 7, 6-Acetyl-5-(2-hydroxy-3-(4-(2-methoxyphenyl)piperazin-1-yl)propoxy)-4,7-dimethyl-2H-chromen-2-one] yielded a Ki (5-HT1A receptor [1]) of 90 nM, a Ki (5-HT2A receptor [2]; [7]) of 4150 nM and an IC50 (5-HT1A receptor [3]; [8]) of 2.4 µM.
For `COc1ccccc1N1CCN(CC(O)COc2ccc3c(C)cc(=O)oc3c2C(C)=O)CC1` (centres unmarked) [Compound 11, 8-Acetyl-7-(2-hydroxy-3-(4-(2-methoxyphenyl)piperazin-1-yl)propoxy)-4-methyl-2H-chromen-2-one], the Ki (5-HT2A receptor [2]; [7]) was 6160 nM, the IC50 (5-HT1A receptor [3]; given in nM in text, read-out: 5-HT1A IC50) was 0.043 µM and the 5-HT1A functional profile (5-HT1A receptor [3]; functional assays) was “significant 5-HT1A antagonistic profile”.
In the case of `COc1cccc(N2CCN(CC(O)COc3cc(C)cc4oc(=O)cc(C)c34)CC2)c1` (centres unmarked) [Compound 6, 5-(2-Hydroxy-3-(4-(3-methoxyphenyl)piperazin-1-yl)propoxy)-4,7-dimethyl-2H-chromen-2-one], the Ki (5-HT1A receptor [1]) is reported as 176 nM, the Ki (5-HT2A receptor [2]; [7]) is reported as 662 nM and the IC50 (5-HT1A receptor [3]; [8]) is reported as 6.5 µM.
`COc1cccc(N2CCN(CC(O)COc3ccc4c(C)cc(=O)oc4c3)CC2)c1` (centres unmarked) [Compound 10, 7-(2-Hydroxy-3-(4-(3-methoxyphenyl)piperazin-1-yl)propoxy)-4-methyl-2H-chromen-2-one] gave a Ki (5-HT1A receptor [1]) of 87 nM, a Ki (5-HT2A receptor [2]; [7]) of 260 nM and an IC50 (5-HT1A receptor [3]; [8]) of 89.5 µM.
For `COc1ccccc1N1CCN(CC(O)COc2cc3oc(=O)cc(C)c3cc2C(C)=O)CC1` (centres unmarked) [Compound 1, 6-Acetyl-7-(2-hydroxy-3-(4-(2-methoxyphenyl)piperazin-1-yl)propoxy)-4-methyl-2H-chromen-2-one], the Ki (5-HT1A receptor [1]) was 243 nM, the Ki (5-HT2A receptor [2]; [7]) was 1850 nM and the IC50 (5-HT1A receptor [3]; [8]) was 331 µM.
For `COc1cccc(N2CCN(CC(O)COc3c(C(C)=O)c(C)cc4oc(=O)cc(C)c34)CC2)c1` (centres unmarked) [Compound 8, 6-Acetyl-5-(2-hydroxy-3-(4-(3-methoxyphenyl)piperazin-1-yl)propoxy)-4,7-dimethyl-2H-chromen-2-one], the Ki (5-HT1A receptor [1]) was 1780 nM, the Ki (5-HT2A receptor [2]; [7]) was 115 nM and the IC50 (5-HT1A receptor [3]; [8]) was 16.2 µM.
In the case of `COc1cccc(N2CCN(CC(O)COc3cc4oc(=O)cc(C)c4cc3C(C)=O)CC2)c1` (centres unmarked) [Compound 2, 6-Acetyl-7-(2-hydroxy-3-(4-(3-methoxyphenyl)piperazin-1-yl)propoxy)-4-methyl-2H-chromen-2-one], the Ki (5-HT1A receptor [1]) is reported as 196 nM, the Ki (5-HT2A receptor [2]; [3H]ketanserin, frontal cortex membranes, 95% CI in brackets) is reported as 83 nM and the IC50 (5-HT1A receptor [3]; [8]) is reported as 58.5 µM and 59 µM.
Compound `COc1ccccc1N1CCN(CC(O)COc2cc(C)cc3oc(=O)cc(C)c23)CC1` (centres unmarked) [Compound 5, 5-(2-Hydroxy-3-(4-(2-methoxyphenyl)piperazin-1-yl)propoxy)-4,7-dimethyl-2H-chromen-2-one] has a Ki (5-HT1A receptor [1]) of 90 nM, a Ki (5-HT2A receptor [2]; [7]) of 1180 nM and an IC50 (5-HT1A receptor [3]; [8]) of 14.7 µM.
With `COc1cccc(N2CCN(CC(O)COc3ccc4ccc(=O)oc4c3)CC2)c1` (centres unmarked) [Compound 14, 7-(2-Hydroxy-3-(4-(3-methoxyphenyl)piperazin-1-yl)propoxy)-2H-chromen-2-one] the Ki (5-HT1A receptor [1]) was 135 nM, the Ki (5-HT2A receptor [2]; [7]) was 68 nM and the IC50 (5-HT1A receptor [3]; [8]) was 112 µM.
With `COc1ccccc1N1CCN(CC(O)COc2cc(=O)oc3ccccc23)CC1` (centres unmarked) [Compound 3, 4-(2-Hydroxy-3-(4-(2-methoxyphenyl)piperazin-1-yl)propoxy)-2H-chromen-2-one] the Ki (5-HT1A receptor [1]) was 243 nM, the Ki (5-HT2A receptor [2]; [7]) was 4010 nM and the IC50 (5-HT1A receptor [3]; [8]) was 67.8 µM and 68 µM.
With `COc1cccc(N2CCN(CC(O)COc3cc(=O)oc4ccccc34)CC2)c1` (centres unmarked) [Compound 4, 4-(2-Hydroxy-3-(4-(3-methoxyphenyl)piperazin-1-yl)propoxy)-2H-chromen-2-one] the Ki (5-HT1A receptor [1]) was 190 nM, the Ki (5-HT2A receptor [2]; [7]) was 315 nM and the IC50 (5-HT1A receptor [3]; [8]) was 10 µM.
For `COc1cccc(N2CCN(CCCCOc3cc4oc(=O)cc(C)c4cc3C(C)=O)CC2)c1` [6-acetyl-7-{4-[4-(3-methoxyphenyl)piperazin-1-yl]butoxy}-4-methylcoumarin], the “5-HT1A receptor activity (agonist/antagonist)” value (5-HT1A receptor [6]) is listed as “agonist”.
